# Tests used:
# [1] = biological target: T1, panel of 442 kinases (Homo sapiens, UniProt O15530); format: binding; settings: Compound Concentration 10 µM
# T1 construct: purchased KINOMEscan
# T1 sequence (O15530 1-556): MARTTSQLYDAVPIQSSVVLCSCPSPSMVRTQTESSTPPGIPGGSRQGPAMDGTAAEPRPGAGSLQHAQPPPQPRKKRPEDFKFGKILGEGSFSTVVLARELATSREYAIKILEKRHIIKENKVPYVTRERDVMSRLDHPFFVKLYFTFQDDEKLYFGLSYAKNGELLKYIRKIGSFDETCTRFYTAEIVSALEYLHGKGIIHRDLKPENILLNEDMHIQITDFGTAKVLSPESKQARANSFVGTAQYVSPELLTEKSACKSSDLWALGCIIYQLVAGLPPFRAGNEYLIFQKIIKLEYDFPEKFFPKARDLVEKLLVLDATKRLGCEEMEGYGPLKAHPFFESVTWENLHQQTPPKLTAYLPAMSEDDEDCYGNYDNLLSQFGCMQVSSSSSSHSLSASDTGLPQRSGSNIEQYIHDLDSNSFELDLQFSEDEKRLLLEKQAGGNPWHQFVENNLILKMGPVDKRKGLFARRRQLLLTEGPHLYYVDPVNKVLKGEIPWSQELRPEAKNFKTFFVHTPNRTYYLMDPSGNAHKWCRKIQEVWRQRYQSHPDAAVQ
# Description: (§1) We assessed the selectivity of members of this scaffold using the KINOMEscan methodology across a near comprehensive panel of 442 kinases [[18,27]].
# [2] = biological target: panel of 442 kinases (Homo sapiens, UniProt P19784); format: binding; settings: Compound Concentration 10 µM
# Chain of panel of 442 kinases (Homo sapiens, UniProt P19784) (P19784 whole entry): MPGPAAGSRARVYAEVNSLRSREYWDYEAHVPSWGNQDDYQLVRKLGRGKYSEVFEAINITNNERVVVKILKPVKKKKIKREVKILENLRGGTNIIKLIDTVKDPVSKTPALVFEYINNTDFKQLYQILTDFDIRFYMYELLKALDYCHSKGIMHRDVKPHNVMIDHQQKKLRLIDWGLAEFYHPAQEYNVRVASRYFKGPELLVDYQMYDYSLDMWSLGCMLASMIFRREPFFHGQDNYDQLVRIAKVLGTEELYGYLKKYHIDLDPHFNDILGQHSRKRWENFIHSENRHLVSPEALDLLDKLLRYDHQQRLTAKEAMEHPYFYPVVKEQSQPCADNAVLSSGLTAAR
# Description: as §1
Structure (SMILES),KINOMEscan: PDPK1 [1],KINOMEscan: CSNK2A2 [2]
COc1cc(C(=O)N2CCC(N3CCN(C)CC3)CC2)ccc1Nc1ncc2c(n1)N(C)c1ccccc1C(=O)N2C [15 (LRRK2-IN-1)],100,93
CCOc1cc(C(=O)N2CCC(N3CCN(C)CC3)CC2)ccc1Nc1ncc2c(n1)N(C1CCCC1)c1ccccc1C(=O)N2C [Compound 26],99,97
"COc1cc(C(=O)N2CCC(N3CCN(C)CC3)CC2)ccc1Nc1ncc2c(n1)N(C1CCCC1)c1ccccc1C(=O)N2C [Compound 25, 11-cyclopentyl-2-((2-methoxy-4-(4-(4-methylpiperazin-1-yl)piperidine-1-carbonyl)phenyl)amino)-5-methyl-5H-benzo[e]pyrimido[5,4-b][1,4]diazepin-6(11H)-one]",98,100
